In patent US8729047B2, “Compositions for inhibiting redox-sensitive GTPases” (Board of Regents, The University of Texas System, priority 2010, dated 2014):
Where two headings read alike, the source gives them in different places.

Key:
[1] = target: RhoC (Homo sapiens, UniProt P08134); test: [3H]GDP displacement of 6-TGDP from .NO2-treated 6-TGDP-loaded GTPase with/without DTT (FIG. 13B); format: binding; set-up: made in house; host or cells: E. coli
Description: FIG. 13. Guanine nucleotide exchange of small GTPases with 6-TGDP. (A) To monitor 6-TGDP-mediated GTPase GDP dissociation, [^3H]GDP-loaded GTPase (1 μM) was incubated with 6-TGDP (0-2000 μM) for 1 h. (B) To monitor GTPase 6-TGDP dissociation by GDP (0-2000 μM) in the presence and absence of dithiothreitol (DTT), 6-TGDP-loaded GTPase (˜1 μM) was treated with .NO2 (˜3 μM) under anaerobic conditions and was incubated with various concentrations of [^3H]GDP (0-2000 μM) in the presence and absence of DTT (10 mM) for 1 h. For all assays, aliquots were withdrawn and spotted onto nitrocellulose filters. The filters were then washed three times with an assay buffer, and radioactivity was determined using a Beckman-Coulter scintillation counter. The resultant radioactivity (dpm) values associated with GTPase-bound [^3H]GDP were converted into the fraction of mol nucleotide per mol total GTPase. The data presented represent mean and standard error values from triplicate measurements. The apparent dissociation constants (appKD values) of GTPase 6-TGDP association ([^3H]GDP dissociation, A); and 6-TGDP dissociation ([3H]GDP association, B) were obtained by fitting the data to a simple dissociation and association, respectively. (A) The ^appKD values of Ras, RhoC, RhoA and Rac1 for 6-TGDP, are, respectively, 2300, 230, 224, and 245 μM [6-TGDP]. (B) The appKD values of RhoC with and without DTT are, respectively, 560, and 1000 μM [[^3H]GDP], whereas the ^appKD values of Ras with and without DTT are 530, and 520 μM [[^3H]GDP], respectively. The standard errors of each ^appKD value are less than 10% of their given values, and regression values associated with the fit were r^2>0.9560.
The ^appKD [3H]GDP was converted into ^trueKD [3H]GDP by using a compensation equation, ^trueKD [3H]GDP=^appKD [3H]GDP/(1+[6-TGDP]/^trueKD GDP) (Segel, I. H. (1993) Enzyme kinetics, A Wiley-Interscience publication, New York) (see above)). The calculated ^trueKD [3H]GDP values of RhoC in the presence and absence of DTT were estimated to be 516 μM and 923 μM, respectively. […] Treatment with DTT, a reducing agent, disrupts the disulfide bond between RhoC and 6-TGDP, liberating 6-TGDP from RhoC, and thereby permitting [^3H]GDP to bind to RhoC.

[2] = target: Rac1 (Homo sapiens, UniProt P63000); test: Competitive binding assay, [3H]GDP-loaded Rho protein titrated with 6-TGDP (FIG. 16A); set-up: made in house; host or cells: E. coli
Description: FIG. 16. Kinetic properties of RhoC with 6-TGDP in the presence or absence of a redox agent. All kinetic analyses are described elsewhere herein. (A) ^appKD values of Rac1, RhoA, RhoC, and RhoC C20S for 6-TGDP were estimated to be 7.9, 11.6, 11.8, and 11.2 μM, respectively. ^trueKD values of Rac1, RhoA, […] for 6-TGDP were then calculated to be 5.1, 10.8, 11.1, and 10.5 μM, respectively, by using a compensation equation, ^trueKD for 6-TGDP=^appKD for 6-TGDP/(1+[[^3H]GDP]/^trueKD for GDP) (Heo, J., and Hong, I. (2010) Biochemistry 49, 3965-3976), in conjunction with the values given. […] The GDP dissociation rates from RhoC C20S by NO, .NO2, and N2O3 were estimated to be 0.02×10^−3, 0.05×10^−3, and 0.04×10^−3 s^−1, respectively. […] (D) ^appKD values of RhoC for [^3H]GDP in the presence or absence of DTT were estimated to be 22.4 μM and […], respectively. ^appKD values of C20S RhoC for [^3H]GDP in the presence or absence of DTT were determined to be 24.8 μM and 25.2 μM, respectively. The regression values associated with these fits were >0.8595. All data points associated with vertical standard error bars shown in this figure are the mean values of triplicate measurements.
Transition metal-free assay buffer and vials as described in a previous study (Heo et al. Biochemistry 49, 3965-3976 (2010)) were used for all kinetic assays. The kinetic assay buffer contains the highest grade of 50 mM NaCl, 10 mM MgCl2, 1 mM EDTA, and 0.1 mM DTPA in 50 mM TrisHCl (pH 7.4). Before performance of any of the assays, all protein samples also were dialyzed with a metal-free buffer under anaerobic conditions. As with RhoA and Rac1 (Heo et al. J. Biol. Chem. 280, 31003-31010 (2005)), C20S RhoC were expressed in E. coli and purified using anionic and size exclusion columns.
(a) A competitive binding assay was performed to determine the binding affinity of Rho GTPase and 6-TGDP. The radiolabeled [^3H]GDP-loaded Rho protein (1 μM) was titrated with various concentrations of 6-TGDP. The titrated Rho protein sample then was spotted onto a nitrocellulose membrane. Each membrane was washed three times with the assay buffer, and radioactivity was determined using a Beckman-Coulter scintillation counter. The radioactivity of the sample (Rho protein-bound [^3H]GDP) was converted into, and thus plotted, as the fraction of mol GDP per mol total Rho protein. The apparent dissociation constant (^appKD) of the Rho protein with [^3H]GDP in the presence of 6-TGDP was determined by using Prism software to fit the titration curve to a hyperbola.

Chain of RhoC (P08134 whole entry): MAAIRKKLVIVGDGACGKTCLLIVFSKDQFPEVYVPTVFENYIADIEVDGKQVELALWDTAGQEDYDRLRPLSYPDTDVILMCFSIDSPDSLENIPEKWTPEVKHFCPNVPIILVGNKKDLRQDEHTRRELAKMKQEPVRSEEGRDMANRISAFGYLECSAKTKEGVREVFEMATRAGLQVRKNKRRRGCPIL

Row | SMILES | Kd ([1]; absence of DTT, calculated by compensation equation, read-out: trueKD [3H]GDP) [µM] | Kd ([1]; presence of DTT, calculated by compensation equation, read-out: trueKD [3H]GDP) [µM] | Kd ([1]; with DTT 10 mM, 6-TGDP-loaded GTPase ~1 μM treated with .NO2 ~3 μM, anaerobic, 1 h, read-out: appKD for [3H]GDP (6-TGDP dissociation)) [µM] | Kd ([1]; without DTT, 6-TGDP-loaded GTPase ~1 μM treated with .NO2 ~3 μM, anaerobic, 1 h, read-out: appKD for [3H]GDP (6-TGDP dissociation)) [µM] | Kd ([2]; [3H]GDP-loaded Rho protein 1 μM titrated with 6-TGDP, read-out: appKD for 6-TGDP) [µM] | Kd ([2]; calculated by compensation equation, read-out: trueKD for 6-TGDP) [µM]
1 | Nc1nc2c(ncn2[C@@H]2O[C@H](COP(=O)(O)OP(=O)(O)O)[C@@H](O)[C@H]2O)c(=O)[nH]1 [GDP] | 923 | 516 | 560 | 1000 | – | –
2 | Nc1nc2c(ncn2[C@@H]2O[C@H](COP(=O)(O)OP(=O)(O)O)[C@@H](O)[C@H]2O)c(=S)[nH]1 [6-TGDP, 6-thioguanosine diphosphate] | – | – | – | – | 7.9 | 5.1
